Laboratory results taken from patent US20230058189A1, “QUINOLIN-4-ONE AND 4(1H)-CINNOLINONE COMPOUNDS AND METHODS OF USING SAME” (Frequency Therapeutics, Inc., priority 2019, published 2023).
pIC50: −log10 of the molar value.

What was measured:
[1] = Caco-2 cell permeability assay; type: in vitro ADME; conditions: human, pH 7.4, approximate values; for efflux ratio at 2 h, 10 µM: Caco-2, Papp (B-A)/Papp (A-B); for Papp A→B at 2 h, 10 μM: Caco-2, apical to basolateral
Procedure: A Caco-2 cell permeability assay can be used for in vitro prediction of drug permeability and absorption, an important feature for a compound to be useful for methods described herein. The apparent permeability (Papp) of the compounds of the present disclosure were determined in Caco-2 cells to measure the rate of drug transport per surface area of the cell membrane. Further the efflux ratios of the compounds of the present disclosure were measured in Caco-2 cells to determine the apparent permeability coefficient in basolateral to apical direction with respect to the apparent permeability coefficient in apical to basolateral direction.
50 μL and 25 mL of cell culture medium were added to each well of the Transwell insert and reservoir, respectively. The HTS transwell plates were incubated at 37° C., 5% CO2 for 1 hour before cell seeding. Caco-2 cells were diluted to 6.86×10^5 cells/mL with culture medium and 50 μL of cell suspension were dispensed into the filter well of the 96-well HTS Transwell plate. Cells were cultivated for 14-18 days in a cell culture incubator at 37° C., 5% CO295% relative humidity. Cell culture medium was replaced every other day, beginning no later than 24 hours after initial plating.
Medium was removed from the reservoir and each Transwell insert and replaced with prewarmed fresh culture medium. Transepithelial electrical resistance (TEER) across the monolayer was measured using Millicell Epithelial Volt-Ohm measuring system (Millipore, USA). The Plate was returned to the incubator once the measurement was done. The TEER value was calculated according to the following equation: TEER measurement (ohms)×Area of membrane (cm^2)=TEER value (ohm·cm^2).
To prepare the HBSS (25 mM HEPES, pH 7.4), accurately weigh 5.958 g of HEPES and 0.35 g sodium hydrogen carbonate and add into 900 mL of pure water, then sonicate to dissolve the content. Transfer 100 mL of 10× HBSS into the solution, and place the solution on a stirrer, slowly adjust pH with sodium hydrate to 7.4, following with filtering. Add 6 μL of stock solution (10 mM) of test compound or control compound to 24 μL of DMSO into the same well to obtain 2 mM stock solutions. Transfer 3 μL of 2 mM solution into 597 μL of transport buffer in one 96 well plate to prepare the 10 μM compound working solution. Shake the plate at 1000 rpm for 10 min. The final concentration of DMSO in the incubation system was 0.5%. Metoprolol, erythromycin, and cimetidine were used as control compounds.
Assays can be conducted using Caco-2 cells to assay transport of a compound or composition For example, Caco-2 plates prepared as described above were removed from the incubator. Monolayers were washed twice with pre-warmed HBSS (25 mM HEPES, pH 7.4), then the plates were incubated at 37° C. for 30 minutes. To determine the rate of drug transport in the apical to basolateral direction, 108 μL of the working solution was added to the Transwell insert (apical compartment), and 8 μL sample was immediately transferred from the apical compartment to 72 μL transport buffer and 240 μL of acetonitrile containing IS (100 nM alprazolam, 200 nM caffeine and 100 nM tolbutamide) in a new 96-well plate as the initial donor sample (A-B). The samples were then vortexed at 1000 rpm for 10 minutes. The wells in the receiver plate (basolateral compartment) were filled with 300 μL of transport buffer. To determine the rate of drug transport in the basolateral to apical direction, 308 μL of the working solution were added to the receiver plate wells (basolateral compartment), and 8 μL sample was immediately transferred from the basolateral compartment to 72 μL transport buffer and 240 μL of acetonitrile containing IS (100 nM alprazolam, 200 nM caffeine and 100 nM tolbutamide) into a new 96-well plate as the initial donor sample (B-A), then Vortexed at 1000 rpm for 10 minutes. The Transwell insert (apical compartment) was filled with 100 μL of transport buffer. […]

Foxo-1 = Foxo-1 (Homo sapiens, UniProt Q12778); conditions: from Molecular Pharmacology (2010), 78(5), 961-970; approximate values; read-out: Potency Foxo-1; cited from earlier work
Chain of Foxo-1 (Q12778 whole entry, species assumed): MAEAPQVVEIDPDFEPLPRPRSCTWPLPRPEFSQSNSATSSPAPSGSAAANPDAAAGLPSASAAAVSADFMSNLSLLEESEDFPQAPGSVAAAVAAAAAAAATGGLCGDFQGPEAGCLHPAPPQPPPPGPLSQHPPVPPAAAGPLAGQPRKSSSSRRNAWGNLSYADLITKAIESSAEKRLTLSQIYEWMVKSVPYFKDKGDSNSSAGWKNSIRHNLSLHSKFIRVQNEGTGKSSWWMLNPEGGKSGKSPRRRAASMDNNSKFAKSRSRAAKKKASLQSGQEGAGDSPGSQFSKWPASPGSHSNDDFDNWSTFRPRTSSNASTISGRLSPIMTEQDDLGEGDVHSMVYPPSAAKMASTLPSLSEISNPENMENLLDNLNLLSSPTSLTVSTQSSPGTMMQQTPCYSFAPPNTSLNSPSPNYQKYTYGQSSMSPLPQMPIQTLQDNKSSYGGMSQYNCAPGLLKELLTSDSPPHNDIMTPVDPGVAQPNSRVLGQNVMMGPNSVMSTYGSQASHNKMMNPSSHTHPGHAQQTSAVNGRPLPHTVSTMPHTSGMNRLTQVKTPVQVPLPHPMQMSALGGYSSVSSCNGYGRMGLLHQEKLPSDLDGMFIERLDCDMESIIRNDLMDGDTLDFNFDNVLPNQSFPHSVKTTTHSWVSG

SMILES	efflux ratio at 2 h, 10 µM [1]	Papp A→B at 2 h, 10 μM [1] [×10⁻⁶ cm/s]	pIC50 (Foxo-1)
CCn1cc(C(=O)O)c(=O)c2c(N)c(F)c(NC3Cc4ccccc4C3)cc21 [Compound I-11]	0.53	5.5	
CCn1cc(-c2nnn[nH]2)c(=O)c2c(N)c(F)c(NCCc3ccccc3)cc21 [Compound I-68]	0.63	0.06	
CCn1cc(C(=O)O)c(=O)c2c(N)c(F)c(Nc3ccccc3)cc21 [Compound I-16]	0.6	17	
CCn1cc(C(=O)O)c(=O)c2c(N)c(F)c(N[C@H]3C[C@@H](c4ccccc4)C3)cc21 [Compound I-61]	0.85	0.11	
CCn1cc(C#N)c(=O)c2c(N)c(F)c(N[C@@H]3C[C@H]3c3ccccc3)cc21 (relative stereo) [Compound I-38]	0.75	1.6	
CCn1cc(C(=O)O)c(=O)c2c(N)c(F)c(NCc3ccccc3)cc21 [Compound I-17]	0.45	23	
CCn1cc(C(=O)O)c(=O)c2c(N)c(F)c(N(C)CCN[C@H]3C[C@@H]3c3ccccc3)cc21 (relative stereo) [Compound I-50]	1.04	9.7	
CCn1cc(C(=O)O)c(=O)c2c(N)c(F)c(NC3CCCCC3)cc21 [Compound I-7]	0.32	13	> 7.00
CCn1cc(C(=O)O)c(=O)c2c(N)c(F)c(N[C@@H]3C[C@H]3c3ccccc3)cc21 (single isomer, unassigned) [Compound I-20]	0.29	6.1	
CCC(CC)n1cc(C(=O)O)c(=O)c2c(C)c(F)c(NC3CCCCC3)cc21 [Compound I-3]	0.27	3.3	> 7.00
CCn1cc(C(=O)O)c(=O)c2c(N)c(F)c(N[C@@H]3CC[C@@H]3c3ccccc3)cc21 (relative stereo) [Compound I-14]	0.58	8.6	
CCn1cc(C(=O)O)c(=O)c2c(N)c(F)c(NCCCc3ccccc3)cc21 [Compound I-19]	0.38	5.9	
Cn1cc(C(=O)O)c(=O)c2c(N)c(F)c(NCCN[C@@H]3C[C@H]3c3ccccc3)cc21 (relative stereo) [Compound I-86]	1.4	5	
CCn1cc(C(=O)O)c(=O)c2c(N)c(F)c(Nc3ccc([C@@H]4C[C@H]4N)cc3)cc21 (relative stereo) [Compound I-62]	38	0.82	
CCn1cc(C(=O)O)c(=O)c2c(N)c(F)c(NC3CCCC3)cc21 [Compound I-9]	0.56	3.4	
CCn1cc(C(=O)O)c(=O)c2c(N)cc(NCCCc3ccccc3)cc21 [Compound I-57]	0.4	7.1	
CCn1cc(C(=O)O)c(=O)c2c(N)c(F)c(NC3CCc4ccccc43)cc21 (centres unmarked) [Compound I-10]	0.56	6.3	
CCn1cc(C(N)=O)c(=O)c2c(N)c(F)c(NCCc3ccccc3)cc21 [Compound I-66]	58	1.8	
CCn1cc(C#N)c(=O)c2c(N)c(F)c(NCCN[C@@H]3C[C@H]3c3ccccc3)cc21 (relative stereo) [Compound I-84]	2.1	4.1	
CCn1cc(C(=O)O)c(=O)c2c(N)c(F)c(N[C@H]3C[C@H](c4ccccc4)C3)cc21 [Compound I-60]	0.5	0.32	

SMILES	efflux ratio at 2 h, 10 µM [1]	Papp A→B at 2 h, 10 μM [1] [×10⁻⁶ cm/s]	pIC50 (Foxo-1)
CCn1cc(C#N)c(=O)c2c(N)c(F)c(NCCc3ccccc3)cc21 [Compound I-67]	0.24	2.2	
CCn1cc(C(=O)O)c(=O)c2c(N)c(F)c(NC3CC3)cc21 [Compound I-15]	0.48	38	
CCCn1cc(C(=O)O)c(=O)c2c(N)c(F)c(NCCN[C@@H]3C[C@H]3c3ccccc3)cc21 (relative stereo) [Compound I-87]	1.4	4.7	
CCn1cc(C(=O)O)c(=O)c2c(N)c(F)c(N[C@@H]3CC[C@H]3c3ccccc3)cc21 (relative stereo) [Compound I-13]	0.53	5.5	
CCn1cc(C(=O)O)c(=O)c2c(N)c(F)c(N3CCC(N[C@@H]4C[C@H]4c4ccccc4)CC3)cc21 (relative stereo) [Compound I-26]	0.85	7.9	
CCn1cc(C(=O)O)c(=O)c2c(N)c(F)c(NC3CC(N[C@@H]4C[C@H]4c4ccccc4)C3)cc21 (relative stereo) [Compound I-70]	1.2	2.4	
CCn1cc(C(=O)O)c(=O)c2c(N)c(F)c(NC3CCOCC3)cc21 [Compound I-8]	3.02	11	
CCn1cc(C(N)=O)c(=O)c2c(N)c(F)c(NCCN[C@H]3C[C@@H]3c3ccccc3)cc21 (relative stereo) [Compound I-83]	1.3	5.1	
CCn1cc(C(=O)O)c(=O)c2c(N)c(F)c(NC3CCC3)cc21 [Compound I-12]	0.72	21	
CCn1cc(C(=O)O)c(=O)c2c(N)c(F)c(NCCc3ccccc3)cc21 [Compound I-18]	0.66	11	
CCn1cc(C(=O)O)c(=O)c2c(N)c(F)c(NC3CN(c4ccccc4)C3)cc21 [Compound I-69]	0.78	4.6	
CCn1cc(C(=O)O)c(=O)c2c(N)c(F)c(NCCN[C@@H]3C[C@]34CCc3ccccc34)cc21 (relative stereo) [Compound I-81]	0.59	5.9	
Nc1c(F)c(N[C@@H]2C[C@H]2c2ccccc2)c(F)c2c1c(=O)c(C(=O)O)cn2C1CC1 (relative stereo) [Compound I-32]	0.47	4.2	
CCn1cc(C(=O)O)c(=O)c2c(N)c(F)c(N[C@H]3CC[C@@H](N[C@@H]4C[C@H]4c4ccccc4)CC3)cc21 (relative stereo) [Compound I-28]	0.48	3.1	
CCn1cc(C(=O)O)c(=O)c2c(N)c(F)c(N[C@@H]3C[C@@H]3c3ccccc3)cc21 (relative stereo) [Compound I-23]	0.69	1.1	
CCn1cc(C(=O)O)c(=O)c2c(N)c(F)c(N[C@H]3CC[C@H](N[C@@H]4C[C@H]4c4ccccc4)CC3)cc21 (relative stereo) [Compound I-27]	1.96	0.94	
CCn1cc(C(=O)O)c(=O)c2c(N)cc(N[C@@H]3C[C@H]3c3ccccc3)cc21 (relative stereo) [Compound I-59]	0.58	6.4	
CCn1cc(C(=O)O)c(=O)c2c(N)c(F)c(NCCN[C@@H]3C[C@H]3c3ccccc3)cc21 (relative stereo) [Compound I-29]	0.39	9.1	
CCn1cc(C(=O)O)c(=O)c2cc(F)c(NC3CCCCC3)cc21 [Compound I-1]	0.47	31	
